Legend:
[1] = tested on: spleen (SP); assay: Whole organ transcriptome (GeneChip microarray) of spleen 6 h after adjuvant administration: sDEGs, hierarchical clustering; type: in vivo, C57BL/6 mice; conditions: for Number of gene probes with statistically significant changes (sDEGs), SP, Down: fold change <0.667, p<0.01, customized PA call=1, 6 h after adjuvant; for Number of gene probes with statistically significant changes (sDEGs), SP, Up: fold change >1.5, p<0.01, customized PA call=1, 6 h after adjuvant
[2] = tested on: adjuvant-associated biological themes in LV, SP, LN
Method in brief: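 Per-mouse whole-organ transcriptomes; genes with eij/ei(c)>2.0 tested for theme enrichment via TargetMine (GO, KEGG, Reactome, others), Fisher's exact test, Holm-Bonferroni correction. Themes shared by all three mice kept at p<0.05, using the smallest p. Score per adjuvant-associated term = Σ−log(p) of matching themes.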

[3] = tested on: liver (LV); assay: Whole organ transcriptome (GeneChip microarray) of liver 6 h after adjuvant administration: sDEGs, hierarchical clustering; type: in vivo, C57BL/6 mice; conditions: for Number of gene probes with statistically significant changes (sDEGs), LV, Down / Number of gene probes with statistically significant changes (sDEGs), LV, Up: liver, 6 h after adjuvant; for Number of gene probes with statistically significant changes (sDEGs), LV, Down: fold change <0.667, p<0.01, customized PA call=1; for Number of gene probes with statistically significant changes (sDEGs), LV, Up: fold change >1.5, p<0.01, customized PA call=1; on cluster of strongly responding individual samples in LV (clustering exceptions): key: G1 (interferon signaling); G2 (metabolism of lipids and lipoproteins); G3 (response to stress); G4 (response to wounding); G5 (phosphate-containing compound metabolic process); G6 (phagosome)

What does the source list for “K3: B class CpG ODN (ATCGACTCTCGAGCGTTCTC), TLR9 ligand (chemistry not given here)”?
Number of gene probes with statistically significant changes (sDEGs), SP, Down ([1]; i.d. administration): 18; Number of gene probes with statistically significant changes (sDEGs), SP, Up ([1]; i.d. administration): 11; Number of gene probes with statistically significant changes (sDEGs), SP, Down ([1]; i.p. administration): 10; Number of gene probes with statistically significant changes (sDEGs), SP, Up ([1]; i.p. administration): 24; tissue damage-associated annotations (cell death, wounding) in LNs ([2]; LN, i.d., fold change >2): did not induce cell death and wounding in LNs; IFN alpha, GO annotation line 1 of 5 ([2]; LV, ID): 0; IFN alpha, GO annotation line 2 of 5 ([2]; LV, ID): 0; IFN alpha: cellular response to interferon-alpha ([2]; LV, ID): 0; IFN alpha: positive regulation of interferon-alpha production ([2]; LV, ID): 0; IFN alpha: regulation of interferon-alpha production ([2]; LV, ID): 0; IFN beta: cellular response to interferon-beta ([2]; LV, ID): 0; IFN beta: interferon-beta production ([2]; LV, ID): 0; IFN beta: positive regulation of interferon-beta production ([2]; LV, ID): 0; IFN beta: regulation of interferon-beta production ([2]; LV, ID): 0; IFN beta: response to interferon-beta ([2]; LV, ID): 0; IFN gamma: cellular response to interferon-gamma ([2]; LV, ID): 0; IFN gamma: interferon-gamma production ([2]; LV, ID): 0; IFN gamma: regulation of interferon-gamma production ([2]; LV, ID): 0; IFN gamma: response to interferon-gamma ([2]; LV, ID): 0; NF-kappa B signaling pathway, GO annotation line 1 of 4 ([2]; LV, ID): 6.19; NF-kappa B signaling pathway, GO annotation line 2 of 4 ([2]; LV, ID): 0; NF-kappa B signaling pathway, GO annotation line 3 of 4 ([2]; LV, ID): 0; NF-kappa B signaling pathway, GO annotation line 4 of 4 ([2]; LV, ID): 0; TNF signaling pathway ([2]; LV, ID): 14.5; adaptive immune response, GO annotation line 1 of 5 ([2]; LV, ID): 0; adaptive immune response, GO annotation line 2 of 5 ([2]; LV, ID): 0; adaptive immune response, GO annotation line 3 of 5 ([2]; LV, ID): 0; adaptive immune response, GO annotation line 4 of 5 ([2]; LV, ID): 0; adaptive immune response, GO annotation line 5 of 5 ([2]; LV, ID): 0; apoptosis, GO annotation line 1 of 8 ([2]; LV, ID): 15.7; apoptosis, GO annotation line 2 of 8 ([2]; LV, ID): 10.1; apoptosis, GO annotation line 3 of 8 ([2]; LV, ID): 10.3; apoptosis, GO annotation line 4 of 8 ([2]; LV, ID): 0; apoptosis, GO annotation line 5 of 8 ([2]; LV, ID): 5.99; apoptosis, GO annotation line 6 of 8 ([2]; LV, ID): 3.19; apoptosis, GO annotation line 7 of 8 ([2]; LV, ID): 0; apoptosis, GO annotation line 8 of 8 ([2]; LV, ID): 0; cell death, GO annotation line 1 of 9 ([2]; LV, ID): 18.3; cell death, GO annotation line 2 of 9 ([2]; LV, ID): 13.9; cell death, GO annotation line 3 of 9 ([2]; LV, ID): 14.9; cell death, GO annotation line 4 of 9 ([2]; LV, ID): 10.5; cell death, GO annotation line 5 of 9 ([2]; LV, ID): 10.9; cell death, GO annotation line 6 of 9 ([2]; LV, ID): 7.25; cell death, GO annotation line 7 of 9 ([2]; LV, ID): 6.67; cell death, GO annotation line 8 of 9 ([2]; LV, ID): 0; cell death, GO annotation line 9 of 9 ([2]; LV, ID): 0; chemokine, GO annotation line 1 of 4 ([2]; LV, ID): 0; chemokine, GO annotation line 2 of 4 ([2]; LV, ID): 0; chemokine, GO annotation line 3 of 4 ([2]; LV, ID): 0; chemokine, GO annotation line 4 of 4 ([2]; LV, ID): 0; chemotaxis, GO annotation line 1 of 11 ([2]; LV, ID): 0; chemotaxis, GO annotation line 2 of 11 ([2]; LV, ID): 0; chemotaxis, GO annotation line 3 of 11 ([2]; LV, ID): 0; chemotaxis, GO annotation line 4 of 11 ([2]; LV, ID): 0; chemotaxis, GO annotation line 5 of 11 ([2]; LV, ID): 0; chemotaxis, GO annotation line 6 of 11 ([2]; LV, ID): 0; chemotaxis, GO annotation line 7 of 11 ([2]; LV, ID): 0; chemotaxis, GO annotation line 8 of 11 ([2]; LV, ID): 0; chemotaxis, GO annotation line 9 of 11 ([2]; LV, ID): 0; chemotaxis, GO annotation line 10 of 11 ([2]; LV, ID): 0; chemotaxis, GO annotation line 11 of 11 ([2]; LV, ID): 0; cytokine, GO annotation line 1 of 17 ([2]; LV, ID): 0; cytokine, GO annotation line 2 of 17 ([2]; LV, ID): 0; cytokine, GO annotation line 3 of 17 ([2]; LV, ID): 0; cytokine, GO annotation line 4 of 17 ([2]; LV, ID): 0; cytokine, GO annotation line 5 of 17 ([2]; LV, ID): 0; cytokine, GO annotation line 6 of 17 ([2]; LV, ID): 0; cytokine, GO annotation line 7 of 17 ([2]; LV, ID): 0; cytokine, GO annotation line 8 of 17 ([2]; LV, ID): 0; cytokine, GO annotation line 9 of 17 ([2]; LV, ID): 0; cytokine, GO annotation line 10 of 17 ([2]; LV, ID): 0; cytokine, GO annotation line 11 of 17 ([2]; LV, ID): 0; cytokine, GO annotation line 12 of 17 ([2]; LV, ID): 0; cytokine, GO annotation line 13 of 17 ([2]; LV, ID): 0; cytokine, GO annotation line 14 of 17 ([2]; LV, ID): 0; cytokine, GO annotation line 15 of 17 ([2]; LV, ID): 0; cytokine, GO annotation line 16 of 17 ([2]; LV, ID): 0; cytokine, GO annotation line 17 of 17 ([2]; LV, ID): 0; defense response, GO annotation line 1 of 11 ([2]; LV, ID): 0; defense response, GO annotation line 2 of 11 ([2]; LV, ID): 0; defense response, GO annotation line 3 of 11 ([2]; LV, ID): 0; defense response, GO annotation line 4 of 11 ([2]; LV, ID): 0; defense response, GO annotation line 5 of 11 ([2]; LV, ID): 0; defense response, GO annotation line 6 of 11 ([2]; LV, ID): 0; defense response, GO annotation line 7 of 11 ([2]; LV, ID): 0; defense response, GO annotation line 8 of 11 ([2]; LV, ID): 0; defense response, GO annotation line 9 of 11 ([2]; LV, ID): 0; defense response, GO annotation line 10 of 11 ([2]; LV, ID): 0; defense response, GO annotation line 11 of 11 ([2]; LV, ID): 0; immune response, GO annotation line 1 of 8 ([2]; LV, ID): 0; immune response, GO annotation line 2 of 8 ([2]; LV, ID): 0; immune response, GO annotation line 3 of 8 ([2]; LV, ID): 0; immune response, GO annotation line 4 of 8 ([2]; LV, ID): 0; immune response, GO annotation line 5 of 8 ([2]; LV, ID): 0; immune response, GO annotation line 6 of 8 ([2]; LV, ID): 0; immune response, GO annotation line 7 of 8 ([2]; LV, ID): 0; immune response, GO annotation line 8 of 8 ([2]; LV, ID): 0; inflammatory response, GO annotation line 1 of 5 ([2]; LV, ID): 0; inflammatory response, GO annotation line 2 of 5 ([2]; LV, ID): 0; inflammatory response, GO annotation line 3 of 5 ([2]; LV, ID): 0; inflammatory response, GO annotation line 4 of 5 ([2]; LV, ID): 0; inflammatory response, GO annotation line 5 of 5 ([2]; LV, ID): 0; innate immune response, GO annotation line 1 of 6 ([2]; LV, ID): 0; innate immune response, GO annotation line 2 of 6 ([2]; LV, ID): 0; innate immune response, GO annotation line 3 of 6 ([2]; LV, ID): 0; innate immune response, GO annotation line 4 of 6 ([2]; LV, ID): 0; innate immune response, GO annotation line 5 of 6 ([2]; LV, ID): 0; innate immune response, GO annotation line 6 of 6 ([2]; LV, ID): 0; interleukin-6: interleukin-6 production ([2]; LV, ID): 0; interleukin-6: positive regulation of interleukin-6 production ([2]; LV, ID): 0; interleukin-6: regulation of interleukin-6 production ([2]; LV, ID): 0; interleukin-12: interleukin-12 production ([2]; LV, ID): 0; interleukin-12: positive regulation of interleukin-12 production ([2]; LV, ID): 0; interleukin-12: regulation of interleukin-12 production ([2]; LV, ID): 0; migration, GO annotation line 1 of 10 ([2]; LV, ID): 0; migration, GO annotation line 2 of 10 ([2]; LV, ID): 0; migration, GO annotation line 3 of 10 ([2]; LV, ID): 0; migration, GO annotation line 4 of 10 ([2]; LV, ID): 0; migration, GO annotation line 5 of 10 ([2]; LV, ID): 0; migration, GO annotation line 6 of 10 ([2]; LV, ID): 0; migration, GO annotation line 7 of 10 ([2]; LV, ID): 0; migration, GO annotation line 8 of 10 ([2]; LV, ID): 0; migration, GO annotation line 9 of 10 ([2]; LV, ID): 0; migration, GO annotation line 10 of 10 ([2]; LV, ID): 0; stress, GO annotation line 1 of 3 ([2]; LV, ID): 12.9; stress, GO annotation line 2 of 3 ([2]; LV, ID): 0; stress, GO annotation line 3 of 3 ([2]; LV, ID): 0; wounding, GO annotation line 1 of 3 ([2]; LV, ID): 0; wounding, GO annotation line 2 of 3 ([2]; LV, ID): 0; wounding, GO annotation line 3 of 3 ([2]; LV, ID): 0; Number of gene probes with statistically significant changes (sDEGs), LV, Down ([3]; i.d. administration): 22; Number of gene probes with statistically significant changes (sDEGs), LV, Up ([3]; i.d. administration): 10; Number of gene probes with statistically significant changes (sDEGs), LV, Down ([3]; i.p. administration): 50; Number of gene probes with statistically significant changes (sDEGs), LV, Up ([3]; i.p. administration): 18; cluster of strongly responding individual samples in LV (clustering exceptions) ([3]; samples D35_ID_x2 and K3_ID_x3 only): G2
